This note sets out measurements from ChEMBL document CHEMBL5113396, “Development of 4-((3-oxo-3-phenylpropyl)amino)benzenesulfonamide derivatives utilizing tail/dual-tail approaches as novel carbonic anhydrase inhibitors” (Eur J Med Chem, 2022).

SMILES strings stand for the structures.

Experiment [1] has as its target Carbonic anhydrase 9 (Homo sapiens, UniProt Q16790).
Description: Inhibition of human carbonic anhydrase 9 assessed as inhibition constant incubated for 15 mins prior to testing by phenol red based stopped-flow CO2 hydration assay
Experiment [2] concerns T47D. Briefly: Antiproliferative activity against human T47D cells assessed as cell growth inhibition incubated for 4 hrs under hypoxia condition by MTT colorimetric assay. The format is functional, cell-based. Background: Tetrazolium assays rely on reduction of a dye to a coloured formazan, in cell work by metabolically active cells.
Experiment [3] deals with MCF7. The experiment can be described thus: Antiproliferative activity against human MCF7 cells assessed as cell growth inhibition incubated for 4 hrs under hypoxia condition by MTT colorimetric assay. The format is functional, cell-based. Conditions: MCF7, 4 h.
Experiment [4] concerns T47D. The experiment can be described thus: Antiproliferative activity against human T47D cells assessed as cell growth inhibition incubated for 4 hrs under normoxia condition by MTT colorimetric assay. The class given is functional, cell-based.
The subject of experiment [5] is MCF7. Briefly: Antiproliferative activity against human MCF7 cells assessed as cell growth inhibition incubated for 4 hrs under normoxia condition by MTT colorimetric assay. The format is functional, cell-based. Conditions: MCF7, 4 h.

Broadly, the Ki is a dissociation constant, usually derived from enzyme kinetics or from competition with a known ligand. Low readings indicate higher affinity, high ones lower affinity. In general, IC50 refers to the midpoint of a concentration-inhibition curve.

In experiment [1], `NS(=O)(=O)c1ccccc1NCCC(=O)c1ccc2ccccc2c1` had a Ki of 0.945 µM. This lies in the sub-micromolar range. Still for that read-out and setting: the result for `NS(=O)(=O)c1ccc(NCCC(=O)c2ccccc2)cc1` reads 0.0515 µM; that for `NS(=O)(=O)c1ccccc1NCCC(=O)c1ccccc1`, 0.313 µM. Still for that read-out and setting: the result for `NS(=O)(=O)c1ccc(C(=O)NNCCC(=O)c2ccccc2)cc1` reads 0.0453 µM. Take `NS(=O)(=O)c1ccc(NCCC(=O)c2ccc3ccccc3c2)cc1`: in experiment [1], the Ki was found to be 0.0094 µM. Moreover, the IC50 in experiment [2] is 19 µM; in experiment [3], 7.5 µM; in experiment [4] it was greater than 100 µM; in experiment [5], 55.1 µM.

Turning to `NS(=O)(=O)c1ccc(NCC/C(=N/CCO)c2ccccc2)cc1`, the Ki in experiment [1] came to 0.0102 µM. Also, the IC50 in experiment [2] came out at 10.9 µM; in experiment [3], 5.7 µM; in experiment [4], 43.1 µM; in experiment [5] it was 29.3 µM.

In experiment [1], `NS(=O)(=O)c1ccc(NNCCC(=O)c2ccccc2)cc1` gave a Ki of 0.0825 µM. Compound `NS(=O)(=O)c1ccc(C(=O)NNCCC(=O)c2ccc3ccccc3c2)cc1` yielded a Ki in experiment [1] of 0.0363 µM.

On to `NS(=O)(=O)c1ccc(CCNCCC(=O)c2ccccc2)cc1`, for which affinity in experiment [1] was put at a Ki of 0.0879 µM. For the compound `COc1cccc2c1C(=O)c1c(O)c3c(c(O)c1C2=O)C[C@@](O)(C(=O)CO)C[C@@H]3O[C@H]1C[C@H](N)[C@H](O)[C@H](C)O1` [DOXORUBICIN], the IC50 turned out to be 3.8 µM in experiment [2] and 3.2 µM in experiment [4]. Take `NS(=O)(=O)c1cccc(NCCC(=O)c2ccc3ccccc3c2)c1`: in experiment [1], the Ki worked out at 0.0387 µM. Same read-out and setting: the result for `NS(=O)(=O)c1ccc(NCC/C(=N\O)c2ccccc2)cc1` reads 0.0538 µM. On the same count and under the same terms, the result for `NS(=O)(=O)c1ccc(NNCCC(=O)c2ccc3ccccc3c2)cc1` reads 0.0667 µM; that for `NS(=O)(=O)c1cccc(NCCC(=O)c2ccccc2)c1`, 0.0757 µM.
